Data published in patent publication US20110293745A1, “AURORA KINASE INHIBITORS” (SUNESIS PHARMACEUTICALS, INC., priority 2008, published 2011).
Like-named read-outs stand apart in the source and are kept apart here.

What was measured:
[1] = Humidity-controlled form conversion; format: physicochemical
Experimental: The samples were monitored each week for a total duration of five weeks. Each sample was tested by XRPD, DSC, TGA, and Karl Fisher analysis.

[2] = Dynamic Vapor Sorption (DVS); format: physicochemical; details: for DVS Result (hygroscopicity): Dynamic Vapor Sorption of crystalline form of Compound 1
Experimental: DVS experiments were carried out on all available forms by first drying the sample at 0% RH and 25° C. until an equilibrium weight was reached or a maximum of four hours. The sample was then subjected to an isothermal (25° C.) adsorption scan from 10 to 90% RH in steps of 10% RH. The sample was allowed to equilibrate to an asymptotic weight at each point for a maximum of four hours. Following adsorption, a desorption scan from […] to 0% RH (at 25° C.) was run in steps of −10% RH again allowing a maximum of four hours for equilibration to an asymptotic weight. The sample was then dried for two hours at 80° C. and the resulting solid analyzed by XRPD.

[3] = Reslurry of Form A in 20 solvents; format: physicochemical; details: THF, EtOAc, MeCN, acetone, MEK, IPA, dioxane, MTBE, IPAc, heptane, CH2Cl2, toluene; room temperature, two weeks
Experimental: Various amounts of solvents were added to each vial to form slurries which were allowed to stir at room temperature for two weeks. The slurries were then filtered with the help of a gentle nitrogen flow. The samples were further dried in vacuo at room temperature for two hours, except the sample from formamide which was dried in vacuo for about 20 hours.
After two weeks, the samples were filtered and then analyzed by XRPD, DSC, and TGA. Three new forms were found from the slurry studies. These Forms I, K, and L were generated from AcOH, NMP, and DMF, respectively. The slurry samples from other solvents afforded results consistent with the single solvent recrystallizations. […] Forms D, E, G, and H were generated from reslurry experiments in DMA, formamide, methanol, and ethanol, respectively.

[4] = Experimental: The solvents were chosen based on differences in polarity and functionality and on their classification according to the International Conference on Harmonization (ICH), with preference given to class II and class III solvents. After each addition of solvent, the vials were visually inspected to assess dissolution and further heated to 55° C. to ensure dissolution.
HCT 116 p53+/+ = experiment: In vitro combination, HCS cell count assay (CI50); format: cell-based, human; details: HCT 116 p53+/+ and p53−/−; dependent on ratios or p53 status
Experimental: A combination index compares the concentration of compounds dosed in combination required for a given fractional effect to the concentration of single agent compound required to give the same fractional affect. In this application, the fractional effect is EC50.
The equation above represents the theoretical additive response for two mutually exclusive drugs, and takes into consideration the ratio at which the two compounds are dosed. […].
[…]. High content cell imaging and a cell proliferation assay were used to measure the anti-proliferative effects of the compounds.
HCT 116 cells transfected with p53 RNAi or a control vector were cultured in DMEM, 10% FBS, and 1× antibiotic/antimycotic. Cells were plated in growth medium in black/clear Falcon® 384-well plates. Cells were treated to assess the effects of p53 status, drug dose ratios, and dose schedules. […]. […] All procedures were performed by a Tecan robotic platform.
After overnight growth, cells were treated with compound for a total of 72 hours and incubated at 37° C., 5% CO2. Cells were fixed in 4% formaldehyde and stained with 1:4000 dilution of 10 mg/mL Hoechst 33342. HCS images were captured and data analyzed using the Target Activation application, object count per field parameter, on the ArrayScan VTI instrument (Cellomics, Inc.).

SMILES: CS(=O)(=O)O.O=C(Nc1cccc(Cl)c1)Nc1ncc(CCNc2ncnc3ccsc23)s1 [A]
- KF ([1]; 0% RH, week 1): 0.17 Wt % H2O
- TGA Loss ([1]; 0% RH, week 1): 0.0 Wt %
- KF ([1]; 0% RH, week 2): <0.1 Wt % H2O
- TGA Loss ([1]; 0% RH, week 2): 0.0 Wt %
- KF ([1]; 0% RH, week 3): 0.11 Wt % H2O
- TGA Loss ([1]; 0% RH, week 3): 0.0 Wt %
- KF ([1]; 0% RH, week 4): <0.1 Wt % H2O
- TGA Loss ([1]; 0% RH, week 4): 0.0 Wt %
- KF ([1]; 0% RH, week 5): 0.1 Wt % H2O
- TGA Loss ([1]; 0% RH, week 5): 0.0 Wt %
- KF ([1]; 20% RH, week 1): 0.16 Wt % H2O
- TGA Loss ([1]; 20% RH, week 1): 0.0 Wt %
- KF ([1]; 20% RH, week 2): 0.12 Wt % H2O
- TGA Loss ([1]; 20% RH, week 2): 0.0 Wt %
- KF ([1]; 20% RH, week 3): 0.11 Wt % H2O
- TGA Loss ([1]; 20% RH, week 3): 0.0 Wt %
- KF ([1]; 20% RH, week 4): <0.1 Wt % H2O
- TGA Loss ([1]; 20% RH, week 4): 0.0 Wt %
- KF ([1]; 20% RH, week 5): 0.2 Wt % H2O
- TGA Loss ([1]; 20% RH, week 5): 0.0 Wt %
- KF ([1]; 52% RH, week 1): 0.29 Wt % H2O
- TGA Loss ([1]; 52% RH, week 1): 0.0 Wt %
- KF ([1]; 52% RH, week 2): 0.16 Wt % H2O
- TGA Loss ([1]; 52% RH, week 2): 0.0 Wt %
- KF ([1]; 52% RH, week 3): 0.11 Wt % H2O
- TGA Loss ([1]; 52% RH, week 3): 0.0 Wt %
- KF ([1]; 75% RH, week 1): 0.12 Wt % H2O
- TGA Loss ([1]; 75% RH, week 1): 0.0 Wt %
- KF ([1]; 75% RH, week 2): 0.13 Wt % H2O
- TGA Loss ([1]; 75% RH, week 2): 0.0 Wt %
- KF ([1]; 75% RH, week 3): 0.19 Wt % H2O
- TGA Loss ([1]; 75% RH, week 3): 0.0 Wt %
- KF ([1]; 75% RH, week 4): <0.1 Wt % H2O
- TGA Loss ([1]; 75% RH, week 4): 0.0 Wt %
- KF ([1]; 75% RH, week 5): 0.3 Wt % H2O
- TGA Loss ([1]; 75% RH, week 5): 0.0 Wt %
- KF ([1]; 95% RH, week 1): 1.5 Wt % H2O
- TGA Loss ([1]; 95% RH, week 1): 0.1 Wt %
- KF ([1]; 95% RH, week 2): 3.2 Wt % H2O
- KF ([1]; 95% RH, week 3): 3.7 Wt % H2O
- KF ([1]; 95% RH, week 4): 3.5 Wt % H2O
- TGA Loss ([1]; 95% RH, week 4): 1.5 Wt %
- KF ([1]; 95% RH, week 5): 3.9 Wt % H2O
- KF ([1]; starting point, week 0): 0.07 Wt % H2O
- TGA Loss ([1]; starting point, week 0): 0.0 Wt %

SMILES: CS(=O)(=O)O.O=C(Nc1cccc(Cl)c1)Nc1ncc(CCNc2ncnc3ccsc23)s1 [B]
- DVS Result (hygroscopicity) [2]: change, low
- KF ([1]; 0% RH, week 1): 1.4 Wt % H2O
- KF ([1]; 0% RH, week 2): 3.4 Wt % H2O
- KF ([1]; 0% RH, week 3): 3.6 Wt % H2O
- KF ([1]; 0% RH, week 4): 3.0 Wt % H2O
- KF ([1]; 0% RH, week 5): 3.4 Wt % H2O
- KF ([1]; 20% RH, week 1): 3.3 Wt % H2O
- KF ([1]; 20% RH, week 2): 3.7 Wt % H2O
- KF ([1]; 20% RH, week 3): 3.6 Wt % H2O
- KF ([1]; 20% RH, week 4): 3.4 Wt % H2O
- KF ([1]; 20% RH, week 5): 3.5 Wt % H2O
- KF ([1]; 52% RH, week 1): 3.0 Wt % H2O
- KF ([1]; 52% RH, week 2): 3.6 Wt % H2O
- KF ([1]; 52% RH, week 3): 3.7 Wt % H2O
- KF ([1]; 52% RH, week 4): 3.3 Wt % H2O
- KF ([1]; 52% RH, week 5): 3.6 Wt % H2O
- KF ([1]; 75% RH, week 1): 3.4 Wt % H2O
- KF ([1]; 75% RH, week 2): 3.4 Wt % H2O
- KF ([1]; 75% RH, week 3): 2.4 Wt % H2O
- KF ([1]; 75% RH, week 4): 3.3 Wt % H2O
- KF ([1]; 95% RH, week 1): 3.2 Wt % H2O
- KF ([1]; 95% RH, week 2): 3.5 Wt % H2O
- KF ([1]; 95% RH, week 3): 4.6 Wt % H2O
- TGA Loss ([1]; 95% RH, week 3): 3.2 Wt %
- KF ([1]; 95% RH, week 4): 3.7 Wt % H2O
- KF ([1]; 95% RH, week 5): 4.7 Wt % H2O
- KF ([1]; starting point, week 0): 3.0 Wt % H2O

SMILES: CS(=O)(=O)O.O=C(Nc1cccc(Cl)c1)Nc1ncc(CCNc2ncnc3ccsc23)s1 [E]
- DVS Result (water uptake) ([2]; at 90% RH): change, 8.0 wt wt %

SMILES: CS(=O)(=O)O.O=C(Nc1cccc(Cl)c1)Nc1ncc(CCNc2ncnc3ccsc23)s1 [Form A]
- form after reslurry [3]: remained unchanged
- Approximate Solubility Conc. ([4]; Solvent AcOH, Temp RT): >17000 µg/mL
- Soluble ([4]; Solvent AcOH, Temp RT): Yes
- Approximate Solubility Conc. ([4]; Solvent Acetone, Temp 55): <370 µg/mL
- Soluble ([4]; Solvent Acetone, Temp 55): No
- Approximate Solubility Conc. ([4]; Solvent DCM, Temp 55): <430 µg/mL
- Soluble ([4]; Solvent DCM, Temp 55): No
- Approximate Solubility Conc. ([4]; Solvent DMA, Temp RT): >28000 µg/mL
- Soluble ([4]; Solvent DMA, Temp RT): Yes
- Approximate Solubility Conc. ([4]; Solvent DMF, Temp RT): >9000 µg/mL
- Soluble ([4]; Solvent DMF, Temp RT): Yes
- Approximate Solubility Conc. ([4]; Solvent Dioxane, Temp 55): <280 µg/mL
- Soluble ([4]; Solvent Dioxane, Temp 55): No
- Approximate Solubility Conc. ([4]; Solvent EtOAc, Temp 55): <250 µg/mL
- Soluble ([4]; Solvent EtOAc, Temp 55): No
- Approximate Solubility Conc. ([4]; Solvent EtOH, Temp 55): ~630 µg/mL
- Soluble ([4]; Solvent EtOH, Temp 55): Yes
- Approximate Solubility Conc. ([4]; Solvent Formamide, Temp RT): >16000 µg/mL
- Soluble ([4]; Solvent Formamide, Temp RT): Yes
- Approximate Solubility Conc. ([4]; Solvent Heptane, Temp 55): <430 µg/mL
- Soluble ([4]; Solvent Heptane, Temp 55): No
- Approximate Solubility Conc. ([4]; Solvent IPA, Temp 55): <300 µg/mL
- Soluble ([4]; Solvent IPA, Temp 55): Partially
- Approximate Solubility Conc. ([4]; Solvent IPAc, Temp 55): <400 µg/mL
- Soluble ([4]; Solvent IPAc, Temp 55): No
- Approximate Solubility Conc. ([4]; Solvent MEK, Temp 55): <480 µg/mL
- Soluble ([4]; Solvent MEK, Temp 55): No
- Approximate Solubility Conc. ([4]; Solvent MTBE, Temp 55): <200 µg/mL
- Soluble ([4]; Solvent MTBE, Temp 55): No
- Approximate Solubility Conc. ([4]; Solvent MeCN, Temp 55): <420 µg/mL
- Soluble ([4]; Solvent MeCN, Temp 55): No
- Approximate Solubility Conc. ([4]; Solvent MeOH, Temp 55): ~700 µg/mL
- Soluble ([4]; Solvent MeOH, Temp 55): Yes
- Approximate Solubility Conc. ([4]; Solvent NMP, Temp RT): >14000 µg/mL
- Soluble ([4]; Solvent NMP, Temp RT): Yes
- Approximate Solubility Conc. ([4]; Solvent THF, Temp 55): <320 µg/mL
- Soluble ([4]; Solvent THF, Temp 55): No
- Approximate Solubility Conc. ([4]; Solvent Toluene, Temp 55): <330 µg/mL
- Soluble ([4]; Solvent Toluene, Temp 55): No
- Approximate Solubility Conc. ([4]; Solvent Water, Temp 55): <280 µg/mL
- Soluble ([4]; Solvent Water, Temp 55): No
- solubility ([4]; in DMF, NMP, DMA, formamide, AcOH): soluble
- solubility ([4]; in THF, EtOAc, MeCN, acetone, MEK, IPA, water, dioxane, MTBE, IPAc, heptane, CH2Cl2 and toluene): poor solubility
- solubility ([4]; in methanol and ethanol): sparingly soluble
- form conversion under humidity ([1]; 0, 25, 52, and 75% RH, five weeks): No form conversion
- form conversion under humidity ([1]; 95% RH, two weeks): converted to Form B

SMILES: CS(=O)(=O)O.O=C(Nc1cccc(Cl)c1)Nc1ncc(CCNc2ncnc3ccsc23)s1 [Form B]
- form conversion under humidity ([1]; all humidity chambers, five weeks): No form conversion

SMILES: CS(=O)(=O)O.O=C(Nc1cccc(Cl)c1)Nc1ncc(CCNc2ncnc3ccsc23)s1 [G]
- DVS Result (hygroscopicity) [2]: change, low

SMILES: CC(=O)O[C@@]12CO[C@@H]1C[C@H](O)[C@@]1(C)C(=O)[C@H](O)C3=C(C)[C@@H](OC(=O)[C@H](O)[C@@H](NC(=O)OC(C)(C)C)c4ccccc4)C[C@@](O)([C@@H](OC(=O)c4ccccc4)[C@H]21)C3(C)C [docetaxel]
- interaction with Compound 1 in cell count assay (HCT 116 p53+/+): conditional synergies

SMILES: Nc1ccn([C@@H]2O[C@H](CO)[C@@H](O)C2(F)F)c(=O)n1 [gemcitabine]
- interaction with Compound 1 in cell count assay (HCT 116 p53+/+): conditional synergies
